# Patent US10092566B2, “Composition for controlling a gut immunity and use thereof” (SEOUL NATIONAL UNIVERSITY R&DB FOUNDATION, priority 2013, dated 2018)
# Legend:
# PLCβ = PLCβ position in cell membrane (PLCβ-RFP flies); format: in vivo, Drosophila; settings: uracil 20 nM for 2 hours
# Method: Genetically modified Drosophila containing PLCβ-RFP (UAS-PLCβ-RFP; Da-GAL4) were used to monitor activated PLCβ generation which is targeted in the membrane as disclosed in the previous research (Ha et al., Nat Immunol 10, pp. 949-957, 2009). A 5% sucrose solution containing 20 nM of uracil was ingested by Drosophila (5 to 6 days old) for 2 hours.
# DUOX [1] = test: In vivo ROS detection in gut epithelia (HOCl-specific R19S staining, ratio of ROS-positive guts); parameters: species or system Drosophila
# Excerpt: R19S, a recently developed HOCl-specific rhodamine-based dye, was used in this experiment (Chen et al., Chem Commun (Camb) 47, pp. 4373-4375, 2011). R19S was purchased from Futurechem (Seoul, South Korea). […]
# Furthermore, to measure the basal level of ROS in germ-free animals, Drosophila monoassociated with each bacterium (C. intestini, A. pomorum, L. plantarum, G. morbifer, G. morbifer-carA::Tn5, L. brevis, or L. brevisΔcarA) were experimented with as disclosed above. A 5% sucrose solution containing 10 μM of R19S was orally administered to the monoassociated Drosophila (13 days old) for 90 minutes.
# Following the R19S ingestion, the midguts were dissected and fixed with 4% formaldehyde. The level of HOCl (ROS level) was visualized by LSM700 confocal microscopy (Carl Zeiss).
# For all of the experiments, R19S-positive guts in each animal group (n=approx. 20) were measured by each independent experiment, and data was indicated by at least three repeated and independent experiments. The number of R19S-positive guts in regard to the total numbers of gut samples was indicated as the ratio of ROS-positive guts.
# E. carotovora-pyrE::Tn5 = test: Gut infection and survival analysis; format: in vivo, Erwinia carotovora; settings: coingestion of 1 nM uracil with E. carotovora-pyrE::Tn5
# Excerpt: During the late exponential phase, different bacteria (E. carotovora, E. carotovora-pyrE::Tn5, E. carotovora-pyrE::Tn5-pyrE, E. carotovora-guaA::Tn5, and E. carotovora-purC::Tn5) were obtained by the centrifugation, and the pellets were washed with PBS and suspended in a 5% sucrose solution. Without a hunger stage, to continuously provide Drosophila with bacteria while being infected, male adult Drosophila (5 to 6 days old) were moved to the bottle with filter paper soaked with a 5% sucrose solution containing different bacteria. The filter paper was changed every day. During the recovery experiment, the coingestion of E. carotovora-pyrE::Tn5 (+uracil) and 1 nM of uracil or the expression of an E. carotovora-pyrE::Tn5 strain, which was genetically recovered by the expression of functional pyrE genes (+pyrE), was utilized.
# Drosophila S2 cells = test: Measurement of intracellular calcium (fura-2); format: cell-based; settings: uracil 20 nM
# Method: Intracellular Ca^2+ was measured by the method disclosed in the previous research (Rosker et al., J Biol Chem 279, pp. 13696-13704, 2004). Briefly speaking, Drosophila S2 cells (approx. 10^8 cells) were loaded with pH 7.4 buffer containing 10 mM glucose, 140 mM NaCl, 1 mM CaCl2, 5 mM KCl, 1 mM MgCl2, and 10 mM HEPES and the solution was treated with […] fura-2-acetoxymethyl ester for 40 minutes at room temperature. The cells were washed twice with pH 7.4 Ca^2+ chelating buffer containing 10 mM glucose, 140 mM NaCl, 1 mM EDTA, 1 mM EGTA, 5 mM KCl, 1 mM MgCl2, and 10 mM HEPES, and were re-suspended in the same buffer. Then, 20 nM of uracil was added to the cells. Fluorescence was continuously recorded at an interval of 0.5 seconds (excitation at 340 nm and 380 nm; emission at 510 nm) by fluorescent spectrophotometer (Shimadzu, Tokyo, Japan) at room temperature.
# DUOX [2] = test: DUOX expression by qPCR; format: in vivo, Drosophila; settings: uracil 20 nM
# Method: Fluorescent RT-PCR was conducted to quantify gene expression and double-stranded DNA dye and SYBR green (Perkin Elmer, Waltham, Mass., USA) were used. To detect target gene trascriptomes, Cecropin (Sense, 5′-ATGAACTTCTACAACATCTTCG-3′ (SEQ ID NO: 5); Antisense, 5′-GGCAGTTGCGGCGACATTGGCG-3′ (SEQ ID NO: 6)), Diptericin (Sense, 5′-GGCTTATCCGATGCCCGACG-3′ (SEQ ID NO: 7); Antisense, 5′-TCTGTAGGTGTAGGTGCTTCCC-3′ (SEQ ID NO: 8)), and DUOX (Sense, 5′-GCTGCACGCCAACCACAAGAGACT-3′ (SEQ ID NO: 9); Antisense, 5′-CACGCGCAGCAGGATGTAAGGTTT-3′ (SEQ ID NO: 10)) were used, and as a control group, Rp49 (Sense, 5′-AGATCGTGAAGAAGCGCACCAAG-3′ (SEQ ID NO: 11); Antisense, 5′-CACCAGGAACTTCTTGAATCCGG-3′ (SEQ ID NO: 12)) was used. SYBR green analysis was conducted by an ABI PRISM 7700 system (PE Applied Biosystems, Foster City, Calif., USA) according to the manufacturer's instructions. All of the samples were repeated three times and analyzed, and a detected amount of mRNA was normalized with mRNA in the control group. Normalized data was used to quantify the relative amount of mRNA according to cycling threshold analysis. Targeted gene expression was expressed as the relative amount of expression.
compound,measurement,setting,value
O=c1cc[nH]c(=O)[nH]1 [uracil],PLC activation (membrane localization of active PLC),PLCβ,PLC activation
same,infection-induced gut ROS after coingestion of uracil with URA− strain,DUOX [1]; E. carotovora-pyrE::Tn5 plus uracil,normal level of infection-induced ROS
same,lowest concentration inducing gut ROS generation,"DUOX [1]; dose-dependent analysis, oral ingestion, adult Drosophila",≥ 10 pM
same,ROS-inducing ability / DUOX activation,"DUOX [1]; nucleobases and pyrimidine analogs, 20 nM each, ingestion for 15 minutes",capable of activating DUOX
same,gut ROS generation,"DUOX [1]; uracil 20 nM for 1.5 hours, PLCβ-DUOX signaling-dependent (absent in DUOX-RNAi, PLCβ−/−)",generation of large amounts of gut ROS
same,requirement of Gαq for uracil-induced ROS generation,"DUOX [1]; uracil 20 nM for 1.5 hours, control vs Gαq−/− flies",required
same,uracil-induced ROS generation in presence of commensal bacteria in the gut,"DUOX [1]; uracil 20 nM, 1.5 hours, GF flies monoassociated with C. intestini, A. pomorum or L. plantarum",could not inhibit the ROS-generating ability of uracil
same,host survival rate after URA− pathogen infection,E. carotovora-pyrE::Tn5,sufficient to restore the host survival rate
same,Ca2+ mobilization,Drosophila S2 cells,Ca^2+ mobilization
same,DUOX gene induction,DUOX [2],DUOX gene induction
